Data reported in patent US9339476B2, “Implantable meshes for controlling the movement of fluids” (Arch Biosurgery, Inc., priority 2013, dated 2016).

Legend:
[1] = test system: blood activated clotting time (ACT); assay: Blood activated clotting time (ACT); type: in vivo, Sprague Dawley rats; conditions: 8 minutes following heparin injection (500 IU/kg, portal vein); baseline approximately 110 seconds
Experimental: (§1) Four female Sprague Dawley rats each weighing 300-320 g were anesthetized with a mixture of xylaxine/ketamine. When a suitable plane of anesthesia was reached, a ventral midline incision was made in the abdomen allowing for visualization and manipulation of the liver's right lobe. Further manipulation to expose the portal vein was performed to allow for withdrawal of 1 mL of blood for measurement of blood activated clotting time (ACT).
(§2) To determine whether hemostasis could be achieved in the presence of anticoagulant, heparin was then administered to the animal at a dose of 500 IU per kg body weight injected directly into the portal vein. Two minutes after heparin injection, a second 4 mm diameter biopsy punch lesion was made adjacent to the first lesion in the right lobe of the liver and 0.5 ml of a 3% aqueous RADA4 peptide solution was again added to the lesion.

[2] = test system: second 4 mm diameter biopsy punch lesion in the right lobe of the liver; assay: Rat liver biopsy punch model, hemostasis in the presence of anticoagulant (heparin); type: in vivo, Sprague Dawley rats
Experimental: as §2

[3] = Reconstitution of lyophilized formulation in sterile water for injection; type: physicochemical; conditions: lyo cakes of 3 vials combined, reconstituted with 1 mL sterile water for injection
Experimental: (§3) A self-assembling peptide having the sequence RADARADARADARADA (RADA4; SEQ. ID. NO: 1) acetate salt was reconstituted in sterile water to 3%. The material was stored at […] in a cooler with cold pack over it until brought to the study facility. Lyo cakes of 3 vials were crushed using a spatula and then combined in 1 vial. The combined content was reconstituted with 1 mL volume of sterile water for injection. The lyophilized formulation went in solution easily in 1-2 minutes and was vortexed for 30 seconds before use.

[4] = test system: 4 mm diameter biopsy punch lesion of the liver's right lobe with brisk bleeding; assay: Rat liver biopsy punch model, hemostasis; type: in vivo, Sprague Dawley rats
Experimental: as §3, §1
A wooden spatula was then placed behind the right lobe of the liver and a 4 mm diameter biopsy punch was used to remove a full thickness 4 mm diameter section of the liver resulting in a lesion with brisk bleeding.
Immediately, 0.5 mL of a 3% aqueous solution of pre-formulated RADA4 peptide reconstituted in sterile water was applied to the biopsy site using a 22½ gauge needle.

Substance | ACT measurement [1] | time until bleeding stopped ([2]; 0.5 ml of 3% aqueous solution, lesion made two minutes after heparin 500 IU per kg into the portal vein) | producing hemostasis (overall outcome) ([2]; 3% aqueous solution, presence of clinically significant anticoagulation) | stability of hemostasis at later assessment ([2]; at 10 minutes, after heparin 500 IU per kg) | time for lyophilized formulation to go in solution [3] | time until bleeding stopped completely ([4]; 0.5 mL of 3% aqueous solution applied to 4 mm liver biopsy site, no anticoagulant) | producing hemostasis (overall outcome) ([4]; 3% aqueous solution, absence of clinically significant anticoagulation) | stability of hemostasis at later assessment ([4]; 10 minutes following application, no anticoagulant)
heparin | greater than 1,300 seconds | – | – | – | – | – | – | –
RADARADARADARADA [RADA4] | – | ≤ 30 s | successful | stable | 1 to 2 min | ≤ 30 s | successful | stable without further bleeding
